Values after ≈ are worked out from the molar mass of the structure shown.

For test [1], the system named is C. glabrata. Kind of test: In vitro antifungal activity vs. yeasts (MIC/MFC). It counts as cell-based. The conditions noted are these: Nakaseomyces glabratus, C. glabrata (n = 1).
The subject of test [2] is C. albicans. Kind of test: Effect on the morphology of growing Candida albicans cultures. To be noted: inhibiting concentrations. It is filed as cell-based.
The test system of the next test is all dermatophyte strains. Kind of test: MIC and MFC range over all dermatophyte strains tested. It counts as cell-based, dermatophytes. The conditions noted are these: Table 14 strains.
For test [3], the system named is Trichophyton mentagrophytes. Kind of test: Guinea pig skin infection, topical dosing. It counts as in vivo. The conditions noted are these: guinea pigs. Here is the method: The efficacy of compound III″ in skin infections of small mammals was shown in guinea pigs infected with Trichophyton mentagrophytes on abrased skin. Compound III″ was administered topically at 0.1% or 1% once daily for seven days. Fungal burden decreased by 82% and 98% respectively, compared to the untreated control (see FIG. 13 showing topical fungal burden as determined by culture positive hair removed from the site of infection).

The subject of test [4] is T. rubrum, Terbinafine resistant isolates. Kind of test: In vitro antifungal activity vs. dermatophytes (MIC/MFC). It counts as cell-based.
For the next test, the system named is Candida albicans. Kind of test: Growth inhibition alone and combined with Amphotericin B (visual). It counts as cell-based. The conditions noted are these: 2 μg/ml and lower. The procedure:
(§1) Potassium (Z)-14-(furan-2-yl)tetradeca-9-en-11,13-diynoate was tested against Aspergillus fumigatus and various Candida species alone to determine antifungal activity and in various combinations with Amphotericin B to determine if any synergistic or antagonistic interactions may occur.
(§2) Amphotericin B and potassium (Z)-14-(furan-2-yl)tetradeca-9-en-11,13-diynoate were added to an in vitro culture of different fungi in various concentrations and the culture was visually inspected. If there is inhibition of growth the culture will remain optically clear, whereas growth results in a hazy culture. The results are shown in FIG. 5, where 0 means optically clear (i.e. no growth), 1 means slightly hazy, 2 means prominent decrease (at least 50%) in visible growth, 3 means slight reduction in visible growth and 4 means no reduction in visible growth.

Another test has as its system Candida parapsilosis. The description is as above. It counts as cell-based. The conditions noted are these: 2 μg/ml and lower. The procedure: as §1, §2
Another test has as its system Aspergillus fumigatus. The description is as above. It is filed as cell-based. Here is the method: as §1, §2
Another test has as its system Candida glabrata. The test is described as above. It counts as cell-based. The procedure:
as §1, §2

The test system of a further test is C. tropicalis. Kind of test: Susceptibility of clinical isolates (MIC, broth dilution). It is filed as cell-based. Background: Broth dilution looks for growth in wells or tubes with falling amounts of substance.
A further test deals with C. lusitaniae. Described as above. It is filed as cell-based.
The test system of another test is C. parapsilosis. The test is described as above. It is filed as cell-based.
Another test relates to C. dubliniensis. The test is described as above. It counts as cell-based.
For test [5], the system named is C. glabrata. The description is as above. It counts as cell-based.
In a further test the test system is C. neoformans. Described as above. It is filed as cell-based. To be noted: C. neoformans (n = 18). The procedure: (§3) The efficacy of compound IV″ was investigated on 563 clinical isolates of 33 human fungal pathogens. […] For species with n≧10, the MIC90 (MIC, minimal inhibitory concentration) is given as ng/ml. For species with n≦10, the MIC range is given as ng/ml. 24 h and 48 h reads are indicated (Table 1).

The subject of the next test is Phialophora verrucosa. The test is described as above. To be noted: Phialophora verrucosa (n = 4). It is filed as cell-based. Here is the method:
as §3

Another test has as its system Fusarium solani. The description is as above. It counts as cell-based. To be noted: Fusarium solani (n = 10). The procedure:
as §3

For another test, the system named is Zygomycetes. The description is as above. It is filed as cell-based. To be noted: Zygomycetes (n = 20). The procedure: as §3
A further test has as its system Sporothrix schenckii. The test is described as above. It counts as cell-based. To be noted: Sporothrix schenckii (n = 10). Here is the method:
as §3

In the next test the test system is Fonsecaea pedrosi. The test is described as above. It is filed as cell-based. The conditions noted are these: Fonsecaea pedrosi (n = 4). Here is the method: as §3
A further test concerns A. flavus. Kind of test: Susceptibility of clinical Aspergillus isolates (MIC). It counts as cell-based. Here is the method: as §3
(§4) Susceptibilities were determined according to the CLSI reference method M38-A2.

The next test deals with A. terreus. The description is as above. It counts as cell-based. Here is the method:
as §3, §4

For a further test, the system named is A. versicolor. Described as above. It counts as cell-based. The procedure: as §3, §4
A further test has as its system A. niger. The test is described as above. It counts as cell-based. The conditions noted are these: 24 h. Here is the method:
as §3, §4

A further test concerns A. fumigatus. Described as above. It is filed as cell-based. Here is the method: as §3, §4
A further test has as its system A. nidulans. The test is described as above. It counts as cell-based. To be noted: 24 h. The procedure: as §3, §4
Test [6] deals with C. albicans. Kind of test: Mice infected systemically with C. albicans, oral dosing, kidney burden. To be noted: orally twice daily for 3 days, vs untreated. It counts as in vivo. The procedure: Mice were infected systemically with C. albicans. Compound IV″ was administered orally twice daily for 3 days at 5 mg/kg or 10 mg/kg per dose. Kidney fungal burden decreased by 88% and 94% respectively, compared to the untreated control (as shown in FIG. 12 showing kidney fungal burden as determined by colony forming units (CFU) per gram of homogenised tissue).

A word on the MFC: it is the smallest concentration meeting the test's criterion for killing the fungus. A word on the MIC: it is the lowest concentration found to suppress growth. A higher MIC goes with a less susceptible organism. Regarding `O=C(O)CCCCCCC/C=C\C#CC#Cc1ccco1` [Compound III″], the MFC is 500 ng/mL (≈ 1760 nM) against C. glabrata [1] and < 0.06 ng/mL in test [4] (Trichophyton rubrum, T. rubrum (TERB-resistant) (n = 9)). The MIC in the test with C. glabrata [1] (90% inhibition endpoint) is 8 ng/mL (≈ 28.1 nM); in test [4] (Trichophyton rubrum, 96 h, T. rubrum (TERB-resistant) (n = 9), 35° C., 4 days), < 0.06 ng/mL. Also, the “effect on hyphal tube formation” value in the test with C. albicans [2] (microscopy) is on record as “prevented hyphal tube formation”. Besides, the “effect on cell growth” value in the test on C. albicans [2] (microscopy and MTT) is given as “fungicidal, totally preventing cell growth”. The “MFC range against dermatophytes” value in the test on all dermatophyte strains is <0.06 to 16000 ng/mL. Further, the “MIC range against all dermatophyte strains” value in the test with all dermatophyte strains is <0.06 to 1000 ng/mL. The “decrease of fungal burden (culture positive hair)” value was determined as 82% in [3] (topically 0.1% once daily for seven days) and 98% in [3] (topically 1% once daily for seven days). In test [4] (T. rubrum, Terbinafine resistant isolates (n = 9), 48 h), the “MIC90/MIC range 48 h” value was <0.06 ng/mL.
As a reminder, the MIC90 is the lowest concentration that inhibits either 90% of growth or 90% of the strains tested, depending on the study. Lower therefore signals greater potency. One may read the MIC50 as the lowest concentration that inhibits either 50% of growth or 50% of the strains tested, depending on the study. Turning to `O=C([O-])CCCCCCC/C=C\C#CC#Cc1ccco1.[K+]` [Compound IV″, potassium (Z)-14-(furan-2-yl)tetradeca-9-en-11,13-diynoate], the inhibition of growth entry with Candida albicans is given as “clearly inhibits growth”; with Candida parapsilosis, “clearly inhibits growth”; with Candida glabrata (2 μg/ml and lower) it was “clearly inhibits growth”. Further, the “interaction with Amphotericin B” value in the test on Aspergillus fumigatus and in the test on Candida glabrata was “Synergism was observed” each time. In addition, the “inhibition of growth by the combination” value with Candida glabrata (AmphothericinB/potassium salt 250/2.5 ng/ml or 125/10 ng/ml) is reported as “clearly inhibit growth”. Moreover, the “MIC90/MIC range 48 h” value in the test on C. tropicalis (C. tropicalis (n = 35), MIC90, 48 h) was determined as 5 ng/mL; against C. lusitaniae (C. lusitaniae (n = 24), MIC90, 48 h), 128 ng/mL; with C. parapsilosis (C. parapsilosis (n = 37), MIC90, 48 h), 1024 ng/mL; in the test with C. dubliniensis (C. dubliniensis (n = 25), MIC90, 48 h), 2.5 ng/mL; against C. glabrata [5] (C. glabrata (n = 25), MIC90, 48 h), 20 ng/mL; against C. neoformans it was 2000 ng/mL. Also, the “MIC90/MIC range 48 h” value with Phialophora verrucosa was 40 to 640 ng/mL; against Fusarium solani, >64000 ng/mL; against Zygomycetes it was 16000 ng/mL; in the test on Sporothrix schenckii it was 32 to 5120 ng/mL; against Fonsecaea pedrosi it was 80 to 2560 ng/mL; against A. flavus (A. flavus (n = 5), MIC range, 48 h) it was >5120 ng/mL. Also, the “MIC90/MIC range 48 h” value with A. versicolor (A. versicolor (n = 4), MIC range, 48 h) was 160 to 5120 ng/mL; in the test on A. fumigatus (A. fumigatus (n = 40), MIC90, 48 h), 1280 ng/mL. For the same compound, the MIC90 against C. tropicalis (Candida tropicalis, 24 h) was determined as 5 ng/mL; against C. lusitaniae (Clavispora lusitaniae, 24 h) it was 128 ng/mL; with C. parapsilosis (Lodderomyces parapsilosis, 24 h), 1020 ng/mL; in the test with C. dubliniensis (Candida dubliniensis, 24 h), 2.5 ng/mL; in the test on C. glabrata [5] (Nakaseomyces glabratus, 24 h), 20 ng/mL. Also, the MIC50 is 128 ng/mL in the test with C. parapsilosis (Lodderomyces parapsilosis, 24 h, read-out: calculated MIC50); > 5120 ng/mL against A. flavus (Aspergillus flavus, 24 h); 10 ng/mL in the test with A. terreus (Aspergillus terreus, 24 h); 1280 ng/mL in the test on A. versicolor (Aspergillus versicolor, 24 h); 2560 ng/mL against A. niger; 80 ng/mL against A. fumigatus (Aspergillus fumigatus, 24 h). The MIC50 in the test on A. nidulans is 5120 ng/mL. For the same compound, the “MIC90/MIC range 24 h” value in the test on A. terreus (A. terreus (n = 5), MIC range) was 10 to 20 ng/mL; against A. versicolor (A. versicolor (n = 4), MIC range, 24 h), 80 to 2560 ng/mL; against A. fumigatus (A. fumigatus (n = 40), MIC90, 24 h), 160 ng/mL. In addition, the “decrease of kidney fungal burden” value in the test on C. albicans [6] (5 mg/kg per dose) is 88%; in the test with C. albicans [6] (10 mg/kg per dose), 94%.

The record behind these values is patent publication US8722910B2, “Diyne compositions” (Evolva AG, priority 2009, dated 2014).
